Assay: Acute toxicity, single oral administration to mice
Conditions: mouse, in vivo, p.o.

Structure (SMILES) | LD50
COc1ccc(C(=O)N2CCCC2=O)cc1O [B, 1-(3-Hydroxy-4-methoxybenzoyl)-2-pyrrolidinone] | 1250 to 2500 mg/kg
COc1ccc(C(=O)N2CC(O)CC2=O)cc1 (racemic) [C, (R,S)-1-(p-Methoxybenzoyl)-4-hydroxy-2-pyrrolidinone] | 2000 to 4000 mg/kg
COc1ccc(C(=O)N2CCC(O)C2=O)cc1 (racemic) [A] | > 5000 mg/kg
